Experimental data as given in patent US20060281813A1, “Methods of treating hyperproliferative cell disorders” (priority 2003, published 2006).
Where “and” joins values, the source holds several entries; their conditions need not be identical. Equal entries are not always repeated. Where two headings read alike, the source gives them in different places.

Columns and labels:
[1] = system: non small cell lung cancer; experiment: Example 2: patient with non small cell lung cancer; assay type: in vivo, human
Method: A patient suffering from non small cell lung cancer was treated with IRESSA® (250 mg per day) for two months. The disease progressed during the treatment and thae patient was continued on IRESSA® (250 mg per day) with daily dosage of 4-oxo-retinol (75 mg per day) for two months. The disease became stable and the patient continued taking IRESSA® (250 mg per day) for 4 more months without 4-oxo-retinol with a stale disease.

[2] = system: refractory/progressive lung cancer; conditions: single agent; cited from earlier work
lung cancer [3] = experiment: Example 7: lung cancer patients with disease progression on IRESSA alone; assay type: in vivo, human; conditions: added to IRESSA, oral 100 mg/square meter, optionally calcitriol 0.1-1 mcg per day
[4] = system: breast cancer, prostate cancer or leukemia; experiment: Example 4: patients with breast cancer, prostate cancer or leukemia; assay type: in vivo, human; conditions: oral 100 mg/square meter with oral IRESSA
[5] = system: retinoid receptor subtype; conditions: competition with all-trans RA; cited from earlier work
[6] = system: advanced head and neck cancer; experiment: Example 5: patients with advanced head and neck cancer; assay type: in vivo, human; conditions: oral 100 mg/square meter with oral IRESSA or intravenous C-225
Source text: Current systemic chemotherapy regimens are unable to prolong survival of patients with advanced head and neck cancer.

lung cancer [7] = experiment: Example 6: patients with lung cancer; assay type: in vivo, human; conditions: oral 100 mg/square meter with oral IRESSA
[8] = system: F9 embryonal mouse teratocarcinoma cells; conditions: all-trans RA-treated, differentiating F9 cells, 18 hour period; cited from earlier work
[9] = system: cutaneous T-cell lymphoma; conditions: single patient, oral, with the VD analog calcitriol; cited from earlier work
Xenopus laevis = Xenopus laevis system; cited from earlier work
ER+ or ER− tumor lines = conditions: cited from earlier work
small cell lung cancer = experiment: Example 8: small cell lung cancer patients with disease progression on IRESSA alone; assay type: in vivo, human; conditions: added to IRESSA about 250-500 mg per day; oral about 100 to 500 mg per day
colorectal cancer = conditions: cited from earlier work
[10] = cited from earlier work; for peak 1,25-dihydroxyvitamin D serum concentration: healthy volunteers
[11] = cited from earlier work
[12] = tumors capable of producing 4-oxo-retinol
[13] = tumors that don't produce 4-oxo-retinol
[14] = up to 32 mcg/day for 3 months, patients with osteopetrosis
[15] = 4 mcg per day for 4 days, postmenopausal women
[16] = up to 2.7 mcg/day for 7 to 15 days, normal volunteers

COc1cc2ncnc(Nc3ccc(F)c(Cl)c3)c2cc1OCCCN1CCOCC1 [IRESSA®, gefitinib]
disease course ([1]; 250 mg per day alone for two months): progressed | disease course ([1]; 250 mg per day for 4 more months without 4-oxo-retinol): stale disease | overall rate of response [2]: 10-15%

CC1=C(/C=C/C(C)=C/C=C/C(C)=C/CO)C(C)(C)CCC1O (centres unmarked) [4-hydroxy-retinol]
tumor burden (lung cancer [3]): reduced tumor burden | tumor burden versus IRESSA alone [4]: reduced tumor burden | displacement of all-trans RA [5]: Neither compound efficiently displaced all-trans RA | survival rate versus IRESSA or C-225 alone [6]: better survival rate | tumor burden versus IRESSA alone (lung cancer [7]): reduced tumor burden

CC1=C(/C=C/C(C)=C/C=C/C(C)=C/CO)C(C)(C)CCC1 [retinol, Retinol]
share of total retinol metabolized to 4-hydroxy-retinol and then 4-oxo-retinol [8]: 10-15%

COc1cc(C)c(/C=C/C(C)=C/C=C/C(C)=C/C(=O)O)c(C)c1C [acitretin]
clinical response [9]: complete remission

CC1=C(/C=C/C(C)=C/C=C/C(C)=C/C(=O)O)C(C)(C)CCC1 [all-trans RA, all-trans-retinoic acid]
ED50, teratogenicity (Xenopus laevis): ~0.1 µM | growth inhibition (ER+ or ER− tumor lines; [12]): growth inhibitory | growth inhibition (ER+ or ER− tumor lines; [13]): lack growth inhibitory effects

C=C(c1ccc(C(=O)O)cc1)c1cc2c(cc1C)C(C)(C)CCC2(C)C [bexarotene]
disease course (small cell lung cancer): stable disease or a reduced tumor burden

CC1=C(/C=C/C(C)=C/C=C/C(C)=C/C(=O)Nc2ccc(O)cc2)C(C)(C)CCC1 [N-(4-hydroxyphenyl)retinamide]
growth inhibition (ER+ or ER− tumor lines; [12]): growth inhibitory | growth inhibition (ER+ or ER− tumor lines; [13]): lack growth inhibitory effects

CCc1c2c(nc3ccc(OC(=O)N4CCC(N5CCCCC5)CC4)cc13)-c1cc3c(c(=O)n1C2)COC(=O)[C@]3(O)CC [IRITONECAN®]
single-agent activity (colorectal cancer): significant single-agent activity

C=C1/C(=C\C=C2/CCC[C@]3(C)[C@@H]([C@H](C)CCCC(C)(C)O)CC[C@@H]23)C[C@@H](O)C[C@@H]1O [calcitriol]
peak 1,25-dihydroxyvitamin D serum concentration ([10]; 2 mcg single oral dose): 0.235 nM and 0.351 nM | serum half life ([10]; in vivo): 3 to 6 h | time to peak serum concentration ([10]; in vivo): 2 h | peak 1,25-dihydroxyvitamin D serum concentration ([10]; single oral dose of 4 mcg): 0.42 nM | stable 1,25-dihydroxyvitamin D serum levels ([10]; up to 3 mcg/day for 6-12 days, normal volunteers): 0.184 to 0.235 nM | peak of stable serum levels of 1,25-dihydroxyvitamin D [10, 14]: 2.32 nM | hypercalcemia [11, 15]: no clinically significant hypercalcemia | patients with serum calcium above 10.8 [11, 15]: Four of the 27 | urinary calcium excretion [11, 15]: increased | urinary hydroxyproline excretion [11, 15]: no increase | dose tolerated without hypercalcemia ([11]; given intermittently): ≤ 0.48 µg/kg | duration of hypercalcemic effect ([11]; in vivo): 3 to 5 days | time of maximal hypercalcemic effect ([11]; in vivo): 10 h | serum calcium ([11]; single oral dose of 4 mcg, healthy volunteers): no elevation | calcium absorption and excretion [11, 16]: increased | serum calcium [11, 16]: no significant elevations | patients with elevation in serum calcium ([11]; up to 3 mcg/day for 6-12 days, low calcium diet): None of the patients | hypercalcemia [11, 14]: no hypercalcemia
